Laboratory results reported in the NIST ThermoML archive (doi:10.1016/j.jct.2018.11.014).

Assay: molar heat capacity at constant pressure
Conditions: 101.33 kPa, Crystal, Vacuum adiabatic calorimetry

O=C(CO)[C@@H](O)[C@H](O)[C@H](O)CO [D-fructose]
Conditions | molar heat capacity at constant pressure [J/K/mol]
10 K | 0.91
14.06 K | 2.815
14.48 K | 3.13
14.92 K | 3.379
15.36 K | 3.634
15.81 K | 3.919
16.27 K | 4.218
16.77 K | 4.66
17.29 K | 5.05
17.75 K | 5.334
18.24 K | 5.753
18.76 K | 6.186
19.31 K | 6.585
19.89 K | 7.065
20 K | 7.19
20.47 K | 7.626
21.03 K | 8.082
21.55 K | 8.514
22.09 K | 9.015
22.64 K | 9.566
23.22 K | 10.1
23.84 K | 10.61
24.41 K | 11.21
24.96 K | 11.67
25.84 K | 12.67
26.71 K | 13.5
27.31 K | 14.07
28.19 K | 14.91
29.03 K | 15.7
29.58 K | 16.16
30 K | 16.66
30.14 K | 16.84
30.73 K | 17.43
31.35 K | 18.05
31.98 K | 18.53
32.62 K | 19.19
33.28 K | 19.89
33.96 K | 20.59
34.65 K | 21.26
35.36 K | 21.95
36.07 K | 22.67
36.78 K | 23.42
37.5 K | 24.11
38.21 K | 24.83
38.91 K | 25.52
39.6 K | 26.21
40 K | 26.59
40.28 K | 26.89
40.99 K | 27.59
41.73 K | 28.3
42.48 K | 29.02
43.26 K | 29.78
44.03 K | 30.54
44.8 K | 31.29
45.6 K | 32.07
46.41 K | 32.85
47.23 K | 33.62
48.05 K | 34.43
48.87 K | 35.18
49.66 K | 35.98
50 K | 36.27
50.46 K | 36.72
51.3 K | 37.5
52.17 K | 38.33
53.08 K | 39.16
54 K | 40.03
54.92 K | 40.88
55.87 K | 41.75
56.84 K | 42.65
57.8 K | 43.54
58.75 K | 44.39
59.68 K | 45.25
60 K | 45.54
60.61 K | 46.09
61.55 K | 46.94
62.48 K | 47.76
63.4 K | 48.61
64.31 K | 49.43
65.22 K | 50.22
66.18 K | 51.08
67.16 K | 51.94
68.22 K | 52.9
69.33 K | 53.88
70 K | 54.46
70.43 K | 54.83
71.5 K | 55.79
72.63 K | 56.77
73.81 K | 57.78
74.97 K | 58.8
76.11 K | 59.77
77.23 K | 60.74
78.4 K | 61.72
79.61 K | 62.76
80 K | 63.1
80.81 K | 63.77
81.98 K | 64.8
83.14 K | 65.76
84.34 K | 66.77
85.59 K | 67.84
86.82 K | 68.83
88.03 K | 69.88
89.22 K | 70.89
90 K | 71.52
90.46 K | 71.89
91.74 K | 72.99
93 K | 73.99
94.24 K | 75.03
95.47 K | 76.03
96.74 K | 77.1
98.05 K | 78.13
99.34 K | 79.2
100 K | 79.73
100.61 K | 80.23
101.88 K | 81.25
103.17 K | 82.3
104.51 K | 83.38
105.83 K | 84.42
107.14 K | 85.5
108.44 K | 86.51
109.77 K | 87.55
110 K | 87.77
111.13 K | 88.69
112.49 K | 89.72
113.83 K | 90.79
115.15 K | 91.82
116.54 K | 92.94
118 K | 94.07
119.43 K | 95.21
120 K | 95.65
120.86 K | 96.29
122.27 K | 97.42
123.72 K | 98.53
125.19 K | 99.73
126.66 K | 100.86
128.15 K | 101.99
129.65 K | 103.12
130 K | 103.4
131.18 K | 104.32
132.78 K | 105.56
134.41 K | 106.79
136.01 K | 107.97
137.61 K | 109.25
139.24 K | 110.5
140 K | 111.05
140.9 K | 111.75
142.55 K | 112.96
144.18 K | 114.21
145.81 K | 115.47
147.46 K | 116.73
149.19 K | 117.96
150 K | 118.61
150.94 K | 119.3
152.67 K | 120.61
154.39 K | 121.92
156.15 K | 123.22
157.94 K | 124.55
159.71 K | 125.9
160 K | 126.11
161.48 K | 127.16
163.23 K | 128.53
165.01 K | 129.85
166.83 K | 131.22
168.63 K | 132.53
170 K | 133.55
170.42 K | 133.87
172.26 K | 135.21
174.19 K | 136.66
176.16 K | 138.12
178.11 K | 139.54
180 K | 140.95
180.05 K | 140.98
181.97 K | 142.44
183.93 K | 143.86
185.92 K | 145.37
187.9 K | 146.78
189.86 K | 148.24
190 K | 148.33
191.82 K | 149.62
193.8 K | 151.13
195.89 K | 152.65
198.03 K | 154.23
200 K | 155.71
200.16 K | 155.79
202.27 K | 157.38
204.41 K | 158.97
206.59 K | 160.59
208.75 K | 162.27
210 K | 163.12
210.91 K | 163.79
213.05 K | 165.43
215.22 K | 166.88
217.41 K | 168.61
219.6 K | 170.28
220 K | 170.57
221.78 K | 172.01
223.94 K | 173.59
226.14 K | 175.1
228.44 K | 176.89
230 K | 178.09
230.8 K | 178.65
233.16 K | 180.52
235.5 K | 182.33
237.87 K | 184.07
240 K | 185.67
240.27 K | 185.87
242.65 K | 187.7
245.03 K | 189.43
247.39 K | 191.32
249.78 K | 193.01
250 K | 193.28
252.2 K | 194.95
254.6 K | 196.74
257 K | 198.58
259.38 K | 200.5
260 K | 200.91
261.79 K | 202.31
264.29 K | 204.15
266.82 K | 206.25
269.35 K | 208.09
270 K | 208.52
271.87 K | 210.03
274.41 K | 211.71
276.98 K | 213.84
279.54 K | 215.75
280 K | 216.17
282.08 K | 217.72
284.61 K | 219.77
287.17 K | 221.78
289.76 K | 223.86
290 K | 224.03
292.33 K | 225.93
294.92 K | 227.98
297.52 K | 230.08
298.15 K | 230.55
300 K | 232.04
300.15 K | 232.18
302.81 K | 234.38
305.45 K | 236.46
308.08 K | 238.4
310 K | 240.14
310.7 K | 240.73
313.34 K | 242.98
316 K | 244.99
318.66 K | 247.19
320 K | 248.27
321.3 K | 249.35
323.93 K | 251.32
326.58 K | 253.53
329.26 K | 255.9
330 K | 256.36
